Test system: Rattus norvegicus
[1] = acute, duration: 1 days, injection, intraperitoneal, M, Sprague-Dawley, anti-edema effect (reduction in paw edema)
[2] = chronic, duration: 2 years, oral, diet, F, Sprague-Dawley, blood: eosinophils (18 months)
[3] = short-term, duration: 14 days, oral, gavage, M, Crj:CD, red blood cell count
[4] = short-term, duration: 14 days, oral, gavage, M, Crj:CD, white blood cell count
[5] = subchronic, duration: 90 days, oral, diet, M, blood: leukocytes (3 months)
[6] = subchronic, duration: 90 days, oral, diet, M, blood: monocytes (1 month)

For `O=C([O-])C(F)(F)C(F)(F)C(F)(F)C(F)(F)C(F)(F)C(F)(F)C(F)(F)F.[NH4+]` [Ammonium perfluorooctanoate], the LOEL [1] was 50 mg/kg-day, the NOEL [1] was 25 mg/kg-day and the NOEL (acute, duration: 1 days, injection, intraperitoneal, M, Sprague-Dawley, paw thickness (0.5 hr) + paw thickness (1 hr) + paw thickness (time 0)) was 150 mg/kg-day. The LOEL (acute, duration: 1 days, injection, intraperitoneal, M, Sprague-Dawley, paw thickness (3 hrs, […] after PFOA) + paw thickness (4 hrs, 2.5 hrs after PFOA)) was 150 mg/kg-day, the LOEL (acute, duration: 1 days, injection, intraperitoneal, M, Sprague-Dawley, paw thickness ([…]) + paw thickness (2 hr) + paw thickness (3 hr) + paw thickness (4 hr)) was 150 mg/kg-day and the NOEL (acute, duration: 1 days, injection, intraperitoneal, M, Sprague-Dawley, paw thickness ([…], time of PFOA injection) + paw thickness (2 hrs, 0.5 hrs after PFOA)) was 150 mg/kg-day. It also gave an NOEL (acute, duration: 1 days, injection, intraperitoneal, M, Sprague-Dawley, paw thickness (edema): 0 hr, after carrageenan + paw thickness (edema): 0 hr, before carrageenan + paw thickness (edema): 0.5 hr + paw …) of 100 mg/kg-day, an LOEL (acute, duration: 1 days, injection, intraperitoneal, M, Sprague-Dawley, paw thickness (edema): […] + paw thickness (edema): 2 hr + paw thickness (edema): 2.5 hr + paw thickness (edema): 3 hr + paw thickness (…) of 100 mg/kg-day and an NOEL (acute, duration: 24 hours, injection, intraperitoneal, M, Fischer 344, blood serum: TNF-alpha levels) of 150 mg/kg-day. It also gave an NOEL (chronic, duration: 2 years, oral, diet, F, Sprague-Dawley, blood: eosinophils (12 months) + blood: eosinophils (24 months) + blood: eosinophils (3 months) + blood: eosinophils (6 months) + blood: …) of 23.4 mg/kg-day, an LOEL [2] of 23.4 mg/kg-day and an NOEL [2] of 2.34 mg/kg-day. The LOEL (chronic, duration: 2 years, oral, diet, F, Sprague-Dawley, blood: lymphocytes (18 months) + blood: neutrophils (18 months) + spleen: spleen: absolute weight (2 years) + spleen: spleen: relative …) was 2.34 mg/kg-day, the NOEL (chronic, duration: 2 years, oral, diet, M, Sprague-Dawley, blood: eosinophils (12 months) + blood: eosinophils (18 months) + blood: eosinophils (24 months) + blood: eosinophils (3 months) + blood: …) was 23.4 mg/kg-day and the LOEL (chronic, duration: 2 years, oral, diet, M, Sprague-Dawley, blood: leukocyte count (12 months) + blood: leukocyte count (3 months) + blood: leukocyte count (6 months) + blood: lymphocytes (18 months…) was 2.34 mg/kg-day. It also gave an NOEL (short-term, duration: 14 days, oral, gavage, M, Crj:CD, blood: NKR-P1A+ + CD3+ + CD4+ + CD45RA+ + CD8a+ + lymphocyte + monocyte + NKR-P1A+ + spleen: spleen: absolute weight + spleen: spleen: …) of 50 mg/kg-day, an LOEL [3] of 50 mg/kg-day and an NOEL [3] of 5 mg/kg-day. The LOEL [4] was 5 mg/kg-day, the NOEL [4] was 0.5 mg/kg-day and the NOEL (short-term, duration: 24 days, oral, gavage, M, Crl:CD(SD) BR, IgM antibody titer (SRBC) + mean serum corticosterone + spleen: incidence of spleen hematopoiesis + spleen: spleen: absolute weight + spleen…) was 30 mg/kg-day. It also gave an LOEL (short-term, duration: 24 days, oral, gavage, M, Crl:CD(SD) BR, thymus: thymus: relative weight) of 30 mg/kg-day, an NOEL (short-term, duration: 28 days, oral, gavage, F, Sprague-Dawley, basophils + eosinophils + lymphocytes + monocytes + neutrophils + spleen: spleen: absolute weight + spleen: spleen: relative weight + thymus…) of 30 mg/kg-day and an NOEL (short-term, duration: 28 days, oral, gavage, F, Sprague-Dawley, basophils + eosinophils + lymphocytes + monocytes + spleen: spleen: absolute weight + spleen: spleen: relative weight + thymus: thymus: …) of 30 mg/kg-day. The LOEL (short-term, duration: 28 days, oral, gavage, F, Sprague-Dawley, neutrophils) was 30 mg/kg-day, the NOEL (short-term, duration: 28 days, oral, gavage, M, Sprague-Dawley, basophils + eosinophils + lymphocytes + monocytes + neutrophils + spleen: spleen: absolute weight + spleen: spleen: relative weight + thymus…) was 30 mg/kg-day and the NOEL (short-term, duration: 28 days, oral, gavage, M, Sprague-Dawley, basophils + eosinophils + lymphocytes + neutrophils + spleen: spleen: absolute weight + spleen: spleen: relative weight + thymus: thymus: …) was 30 mg/kg-day. The LOEL (short-term, duration: 28 days, oral, gavage, M, Sprague-Dawley, monocytes + thymus: thymus: absolute weight) was 30 mg/kg-day, the NOEL (short-term, duration: 29 days, oral, gavage, M, Crl:CD(SD) BR, IgM antibody titer (SRBC) + mean serum corticosterone + spleen: incidence of spleen hematopoiesis + spleen: spleen: relative weight + spleen…) was 30 mg/kg-day and the NOEL (subchronic, duration: 90 days, oral, diet, F, blood: basophils (1 month) + blood: basophils (3 months) + blood: eosinophils (1 month) + blood: eosinophils (3 months) + blood: leukocytes…) was 96 mg/kg-day. It also gave an NOEL (subchronic, duration: 90 days, oral, diet, M, blood: basophils (1 month) + blood: basophils (3 months) + blood: eosinophils (1 month) + blood: eosinophils (3 months) + blood: leukocytes…) of 96 mg/kg-day, an LOEL [5] of 28.8 mg/kg-day and an NOEL [5] of 9.6 mg/kg-day. It also gave an LOEL [6] of 2.88 mg/kg-day and an NOEL [6] of 0.96 mg/kg-day.

From EPA's ToxValDB 9.5
